Reference: patent publication US6124263A, “Treatment of tumors by administration of growth hormone releasing compounds and their antagonists” (Asta Medica AG, priority 1998, dated 2000)
Blank lines part the entries; values can stand above or below the molecule they belong to. Numbered stars: 1 amine (or outer) side, 2 acyl side, 3 side chain; on linkers, the order of the positions; unused ones are H or OH. Square brackets hold non-standard residues; d marks the D form. Peptide text beside a SMILES is read from it. Haic = O=C1[C@@H](N[*:1])CCc2cccc3c2N1[C@H](C(=O)[*:2])C3; dTrp(2-Me) = Cc1[nH]c2ccccc2c1C[C@@H](N)C(=O)O

How the values were obtained:
[1] = test system: Human lung carcinoma cells (CaLu1); type: cell-based; conditions: for EC50: 3 h; for effect on basal and EGF-stimulated 3H-thymidine incorporation: 10-6 mol/l compound, 20 h + 4 h incubation, FIG. 4
Description: Human lung carcinoma cells (CaLu1), T47D and MDA-MB231, respectively, human oestrogen dependent and oestrogen independent breast cancer cell lines were purchased from the ATCC (Rockville, Md., USA). Cells were routinely cultured in […] flasks at 37° C., 5% CO2 and 95% humidified atmosphere in RPMI supplemented with 10% FCS, penicillin-streptomycin and fungizone. When a subconfluent state was reached, cells were detached from the flasks with trypsin/EDTA. DNA synthesis was evaluated by ^3 H-thymidine incorporation as described in G. Muccioli et al., Journal of Endocrinology, 153, 365-371, 1997. […] After incubation for 20 hours, ^3 H-thymidine was added and incubation was continued for a further 4 hours. The reaction was halted and the cells were harvested onto glass-fiber filter strips. Incorporation of ^3 H-thymidine was measured in a scintillation counter.

GHRP receptors = assay: GHRP receptor assay: 125I-Tyr-Ala-Hexarelin binding to tumor membranes; parameters: species or system human; conditions: for competition with 125I-Tyr-Ala-Hexarelin for the tumoral binding sites (displacement of radiotracer binding): membranes of a non-endocrine carcinoma of lung origin, FIG. 3
Description: Surgical tumor specimens were collected from the Department of Biomedical Sciences and Human Oncology (Division of Pathology) of the University of Turin. A tumor fragment adjacent to that used for histopathological diagnosis was immediately frozen at -80° C. and stored for 2 to 60 months until further processed for binding studies. Samples of 13 invasive breast carcinoma (10 ductal and 3 lobular), 14 non-endocrine lung carcinomas (5 squamous cell and 9 adenocarcinomas), 11 endocrine tumors of the lung, 9 endocrine tumors of the pancreas and 12 thyroid carcinomas (7 of follicular origin and 5 of medullary origin) were used. Non-neoplastic normal tissues of the corresponding organs were also analysed in parallel with the individual tumors.
GHRP receptors were measured on tumor membranes as described in G. Muccioli et al., Journal of Endocrinology, 157, 99-106, 1998, using ^125 I-Tyr-Ala-Hexarelin as a ligand. Specific binding was calculated as the difference between binding in the absence and in the presence of excess unlabelled Tyr-Ala-Hexarelin and expressed as a percentage of the radioactivity added. Saturation and competition binding studies were analyzed with the GraphPAD Prism 2 program (GraphPAD Software, San Diego, Calif., USA).

[2] = test system: Human lung carcinoma cells (CaLu1); assay: Cell growth study (cell count), human lung carcinoma cells; type: cell-based; conditions: FIG. 6
Description: (§1) Human lung carcinoma cells (CaLu1), T47D and MDA-MB231, respectively, human oestrogen dependent and oestrogen independent breast cancer cell lines were purchased from the ATCC (Rockville, Md., USA). Cells were routinely cultured in […] flasks at 37° C., 5% CO2 and 95% humidified atmosphere in RPMI supplemented with 10% FCS, penicillin-streptomycin and fungizone. When a subconfluent state was reached, cells were detached from the flasks with trypsin/EDTA. Cell growth studies were carried out as described in P.Cassoni et al., Virchows Archiv, 425, 467-472, 1994. Cells were seeded in triplicate in 24-multiwell plates at a density of 5,000-10,000 cells/ml. Twenty-four hours after plating the medium was changed. Hexarelin or Ala-Hexarelin were added where requested at concentrations ranging from 10^-8 to 10^-6 mol/l. The medium was changed every 48 hours. Cells were counted at 48 and 72 or 96 hours of treatment in a double blind analysis by two independent investigators using a haemocytometer.

[3] = test system: human breast cancer T47D cells; assay: Cell growth study (cell count), T47D cells; type: cell-based; conditions: FIG. 7a
Description: as §1

[4] = test system: human breast cancer MDA-MB231 cells; assay: Cell growth study (cell count), MDA-MB231 cells; type: cell-based; conditions: FIG. 8a
Description: as §1

[5] = 10^-7 mol/l and 10^-6 mol/l, any time point tested

Molecule: NCCCC[C@H](NC(=O)[C@@H](Cc1ccccc1)NC(=O)[C@H](Cc1c[nH]c2ccccc12)NC(=O)[C@@H](CCCCN)NC(=O)[C@@H](Cc1c[nH]c2ccccc12)NC(=O)[C@@H](N)Cc1c[nH]cn1)C(N)=O [(D-Lys)3 -GHRP6, His-D-Trp-D-Lys-Trp-D-Phe-Lys-NH2] (H-H[dW][dK]W[dF]K-NH2)
EC50 [1]: 90 nM

Molecule: Cc1[nH]c2ccccc2c1C[C@@H](NC(=O)[C@H](Cc1c[nH]cn1)NC(=O)[C@H](C)N)C(=O)N[C@@H](C)C(=O)N[C@@H](Cc1c[nH]c2ccccc12)C(=O)N[C@H](Cc1ccccc1)C(=O)N[C@@H](CCCCN)C(N)=O [Ala-Hexarelin, Ala-His-D-Mrp-Ala-Trp-D-Phe-Lys-NH2] (H-AH[dTrp(2-Me)]AW[dF]K-NH2)
EC50 [1]: 100 nM

Molecule: Cc1[nH]c2ccccc2c1C[C@@H](NC(=O)[C@@H]1Cc2cccc3c2N1C(=O)[C@@H](N)CC3)C(=O)N[C@H](CCCCN)C(=O)N[C@@H](Cc1c[nH]c2ccccc12)C(=O)N[C@H](Cc1ccccc1)C(=O)N[C@@H](CCCCN)C(N)=O [EP80317, HAIC-D-Mrp-D-Lys-Trp-D-Phe-Lys-NH2] (Haic-[dTrp(2-Me)][dK]W[dF]K-NH2)
EC50 [1]: 56 nM

Molecule: Cc1[nH]c2ccccc2c1C[C@@H](NC(=O)[C@@H](N)Cc1cnc[nH]1)C(=O)N[C@@H](C)C(=O)N[C@@H](Cc1c[nH]c2ccccc12)C(=O)N[C@H](Cc1ccccc1)C(=O)N[C@@H](CCCCN)C(N)=O [Hexarelin, His-D-Mrp-Ala-Trp-D-Phe-Lys-NH2] (H-H[dTrp(2-Me)]AW[dF]K-NH2)
competition with 125I-Tyr-Ala-Hexarelin for the tumoral binding sites (displacement of radiotracer binding) (GHRP receptors): displaced in a dose-dependent fashion
effect on basal and EGF-stimulated 3H-thymidine incorporation ([1]; EGF 1 ng/ml): able to inhibit both basal and the EGF-stimulated
inhibition of the proliferative effect of EGF with increasing concentrations ([1]; 10^-8 to 10^-6 mol/l, EGF 1 ng/ml, FIG. 5): inhibited in a dose-dependent fashion
EC50 [1]: 80 nM
decrease in cell number compared with control at higher concentrations [2, 5]: further increased
decrease in cell number compared with control ([2]; 10^-8 mol/l, after 96 hours): -47%
decrease in cell number compared with control at higher concentrations [3, 5]: further increased
decrease in cell number compared with control ([3]; 10^-8 mol/l, after 96 hours): -54%
decrease in cell number compared with control at higher concentrations [4, 5]: further increased
decrease in cell number compared with control ([4]; 10^-8 mol/l, after 72 hours): -33%

Molecule: C[C@H](N)C(=O)NCC(=O)N[C@H]1CSSC[C@@H](C(=O)O)NC(=O)[C@H](CO)NC(=O)[C@H]([C@@H](C)O)NC(=O)[C@H](Cc2ccccc2)NC(=O)[C@H]([C@@H](C)O)NC(=O)[C@H](CCCCN)NC(=O)[C@H](Cc2c[nH]c3ccccc23)NC(=O)[C@H](Cc2ccccc2)NC(=O)[C@H](Cc2ccccc2)NC(=O)[C@H](CC(N)=O)NC(=O)[C@H](CCCCN)NC1=O [somatostatin]
competition with 125I-Tyr-Ala-Hexarelin for the tumoral binding sites (displacement of radiotracer binding) (GHRP receptors): no competition

Molecule: GHRH: Human GHRH (GHRH 1-44) purchased from Bachem
competition with 125I-Tyr-Ala-Hexarelin for the tumoral binding sites (displacement of radiotracer binding) (GHRP receptors): no competition

Continued, in another order:

competition with 125I-Tyr-Ala-Hexarelin for the tumoral binding sites (displacement of radiotracer binding) (GHRP receptors): negligible displacement
Molecule: CC(C)(N)C(=O)N[C@H](COCc1ccccc1)C(=O)N1CCC2(CC1)CN(S(C)(=O)=O)c1ccccc12 [MK0677, reference compound]
effect on basal and EGF-stimulated 3H-thymidine incorporation ([1]; EGF 1 ng/ml): slight inhibition

EC50 [1]: 65 nM
Molecule: Cc1[nH]c2ccccc2c1C[C@@H](NC(=O)[C@H](Cc1c[nH]cn1)NC(=O)[C@H](C)NC(=O)[C@@H](N)Cc1ccc(O)cc1)C(=O)N[C@@H](C)C(=O)N[C@@H](Cc1c[nH]c2ccccc12)C(=O)N[C@H](Cc1ccccc1)C(=O)N[C@@H](CCCCN)C(N)=O [Tyr-Ala-Hexarelin, Tyr-Ala-His-D-Mrp-Ala-Trp-D-Phe-Lys-NH2] (H-YAH[dTrp(2-Me)]AW[dF]K-NH2)

binding of 125I-Tyr-Ala-Hexarelin to tumor membranes as a function of radioligand concentration (saturation, Scatchard) (GHRP receptors; non-endocrine carcinoma of lung origin, FIG. 2): saturable specific binding
Molecule: ^125 I-Tyr-Ala-His-D-Mrp-Ala-Trp-D-Phe-Lys-NH2 [^125 I-Tyr-Ala-Hexarelin]
